Laboratory results reported in patent US7138361B2, “Herbicidal heterocycles” (E. I. du Pont de Nemours and Company, priority 2000, dated 2006).

Assays:
Assay in all cases: Test C postemergence
Assay type in all cases: in vivo
[1] = system: soybean (Glycine max)
Method in brief: (§1)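 Formulation: non-phytotoxic solvent mix incl. surfactant. Pre: applied right after planting. Post: 1–4-leaf seedlings. Read: visual 0–100, day 12–14, greenhouse.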

[2] = system: goosegrass (Eleusine indica)
Method in brief: as §1

[3] = system: velvetleaf (Abutilon theophrasti)
Method in brief: as §1

[4] = system: lambsquarters (Chenopodium album)
Method in brief: as §1

[5] = Rate 125 g/ha, scale 0 to 100, 0 no effect, 100 complete control
[6] = Rate 250 g/ha, scale 0 to 100 (0 no effect, 100 complete control)
[7] = Rate 500 g/ha, scale 0 to 100 (0 no effect, 100 complete control)

| SMILES | Plant response rating, Soybean [1, 5] | Plant response rating, Soybean [1, 6] | Plant response rating, Goosegrass [2, 5] | Plant response rating, Goosegrass [2, 6] | Plant response rating, Velvetleaf [3, 5] | Plant response rating, Velvetleaf [3, 6] | Plant response rating, Lambsquarters [4, 5] | Plant response rating, Lambsquarters [4, 6] | Plant response rating, Soybean ([1]; Rate 31 g/ha, scale 0 to 100) | Plant response rating, Goosegrass ([2]; Rate 31 g/ha, scale 0 to 100) | Plant response rating, Velvetleaf ([3]; Rate 31 g/ha, scale 0 to 100) | Plant response rating, Lambsquarters ([4]; Rate 31 g/ha, scale 0 to 100) | Plant response rating, Soybean [1, 7] | Plant response rating, Goosegrass [2, 7] | Plant response rating, Velvetleaf [3, 7] | Plant response rating, Lambsquarters [4, 7] | Plant response rating, Soybean ([1]; Rate 62 g/ha, scale 0 to 100) | Plant response rating, Goosegrass ([2]; Rate 62 g/ha, scale 0 to 100) | Plant response rating, Velvetleaf ([3]; Rate 62 g/ha, scale 0 to 100) | Plant response rating, Lambsquarters ([4]; Rate 62 g/ha, scale 0 to 100) |
| --- | --- | --- | --- | --- | --- | --- | --- | --- | --- | --- | --- | --- | --- | --- | --- | --- | --- | --- | --- | --- |
| CCC(C)c1ccn(C2SCN(c3cccc(C(F)(F)F)c3)C2=O)n1 (centres unmarked) [Compound 20] | 20 | 20 | 20 | 40 | 30 | 30 | 70 | 80 |  |  |  |  |  |  |  |  |  |  |  |  |
| CCC(CC)c1ccn(C2SCN(c3cccc(C(F)(F)F)c3)C2=O)n1 (centres unmarked) [Compound 21] | 30 |  | 0 |  | 30 |  | 80 |  | 0 | 0 | 20 | 70 |  |  |  |  |  |  |  |  |
| CCC(CC)c1ccn(C2SCN(c3cccc(C(F)(F)F)c3)C2=O)n1 (centres unmarked) [Compound 25] | 20 | 30 | 20 | 60 | 40 | 50 | 90 | 100 |  |  |  |  | 30 | 60 | 50 | 100 |  |  |  |  |
| CC(C)(C)c1ccn(C2SCN(c3cccc(OC(F)(F)F)c3)C2=O)n1 (centres unmarked) [Compound 30] | 0 | 0 | 0 | 30 | 30 | 50 | 90 | 90 |  |  |  |  | 0 | 40 | 60 | 90 |  |  |  |  |
| CC(C)(C)c1ccn(C2SCN(c3cccc(OC(F)F)c3)C2=O)n1 (centres unmarked) [Compound 36] | 0 | 0 | 0 | 0 | 0 | 30 | 70 | 70 | 0 | 0 | 0 | 50 |  |  |  |  |  |  |  |  |
| O=C1C(n2ccc(C3CCC3)n2)SCN1c1cccc(C(F)(F)F)c1 (centres unmarked) [Compound 37] | 0 | 0 | 0 | 0 | 0 | 0 | 20 | 50 | 0 | 0 | 0 | 20 |  |  |  |  |  |  |  |  |
| O=C1C(n2ccc(C3CCC3)n2)SCN1c1cccc(OC(F)(F)F)c1 (centres unmarked) [Compound 38] | 0 | 0 | 0 | 0 | 0 | 0 | 30 | 70 |  |  |  |  | 0 | 0 | 0 | 70 | 0 | 0 | 0 | 30 |
